ChEMBL document CHEMBL1201862, “PubChem BioAssay data set” (2004)
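Interpolation was linear, between the two tested concentrations surrounding the appropriate level; five concentrations were tested over 48 hours in 96-well plates. GI50: concentration for 50% inhibition of growth.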 Active and inactive are the calls of the source. No stated cut-off is given here; in the data, active = GI50 up to about 1.1 µM and inactive = higher.

Columns and labels:
Experiment in all cases: NCI tumour cell line growth inhibition, 48 h
CCRF-CEM = tested on: CCRF-CEM
PC-3 = tested on: PC-3
UACC-62 = tested on: UACC-62
T47D = tested on: T47D
HOP-62 = tested on: HOP-62
BT-549 = tested on: BT-549
K562 = tested on: K562
RPMI-8226 = tested on: RPMI-8226
Hs-578T = tested on: Hs-578T
SN12C = tested on: SN12C
SK-OV-3 = tested on: SK-OV-3
HCC 2998 = tested on: HCC 2998
NCI-H460 = tested on: NCI-H460
UO-31 = tested on: UO-31
MDA-MB-231 = tested on: MDA-MB-231
LOX IMVI = tested on: LOX IMVI
NCI-H23 = tested on: NCI-H23
SNB-75 = tested on: SNB-75
RXF 393 = tested on: RXF 393
NCI-H226 = tested on: NCI-H226

| SMILES | GI50 (CCRF-CEM) | GI50 (PC-3) | GI50 (UACC-62) | GI50 (T47D) | GI50 (HOP-62) | GI50 (BT-549) | GI50 (K562) | GI50 (RPMI-8226) | GI50 (Hs-578T) | GI50 (SN12C) | GI50 (SK-OV-3) | GI50 (HCC 2998) | GI50 (NCI-H460) | GI50 (UO-31) | GI50 (MDA-MB-231) | GI50 (LOX IMVI) | GI50 (NCI-H23) | GI50 (SNB-75) | GI50 (RXF 393) | GI50 (NCI-H226) |
| --- | --- | --- | --- | --- | --- | --- | --- | --- | --- | --- | --- | --- | --- | --- | --- | --- | --- | --- | --- | --- |
| Cc1cc(S(=O)(=O)Nc2nc3ccccc3[nH]2)c(S)cc1Cl | 26.6 µM (inactive) | 46.6 µM (inactive) | 79.4 µM (inactive) | 41.4 µM (inactive) | 39.4 µM (inactive) | > 100 µM (inactive) | 48 µM (inactive) | 34.6 µM (inactive) | 70 µM (inactive) | > 100 µM (inactive) | > 100 µM (inactive) | 98.9 µM (inactive) | 32.7 µM (inactive) | > 100 µM (inactive) | 58.6 µM (inactive) | 19.3 µM (inactive) | 67.9 µM (inactive) | > 100 µM (inactive) | > 100 µM (inactive) | – |
| CCOC(=O)CCNC(=O)c1cc(C)cc2c1Oc1c(cc(C)cc1C(=O)NCCC(=O)OCC)S2 | > 100 µM (inactive) | > 100 µM (inactive) | 38.5 µM (inactive) | 28.8 µM (inactive) | 56.4 µM (inactive) | 68.7 µM (inactive) | > 100 µM (inactive) | > 100 µM (inactive) | 34 µM (inactive) | > 100 µM (inactive) | > 100 µM (inactive) | > 100 µM (inactive) | – | > 100 µM (inactive) | 25.2 µM (inactive) | 95.9 µM (inactive) | > 100 µM (inactive) | 20.7 µM (inactive) | 20.9 µM (inactive) | 81.7 µM (inactive) |
| N#Cc1nc(-c2cccs2)oc1N | 70.6 µM (inactive) | > 100 µM (inactive) | > 100 µM (inactive) | > 100 µM (inactive) | > 100 µM (inactive) | > 100 µM (inactive) | > 100 µM (inactive) | > 100 µM (inactive) | > 100 µM (inactive) | > 100 µM (inactive) | > 100 µM (inactive) | > 100 µM (inactive) | > 100 µM (inactive) | 62.4 µM (inactive) | 51.3 µM (inactive) | 63.5 µM (inactive) | > 100 µM (inactive) | 92.3 µM (inactive) | > 100 µM (inactive) | > 100 µM (inactive) |
| COc1ccc(C2SCC(=O)N2NC(=O)C(C)Oc2ccccc2C)cc1 (stereo not given) | 65.2 µM (inactive) | > 100 µM (inactive) | 80.2 µM (inactive) | 46.3 µM (inactive) | > 100 µM (inactive) | > 100 µM (inactive) | 41.4 µM (inactive) | 41.5 µM (inactive) | > 100 µM (inactive) | 87.7 µM (inactive) | > 100 µM (inactive) | > 100 µM (inactive) | > 100 µM (inactive) | 72.1 µM (inactive) | 47.5 µM (inactive) | 60.1 µM (inactive) | 55.6 µM (inactive) | > 100 µM (inactive) | > 100 µM (inactive) | > 100 µM (inactive) |
| C=C1C[C@@H](O)[C@@H](Br)C(C)(C)[C@]12CCC(C)(Br)C(Cl)C2 (stereo not given in full) | > 50 µM (inactive) | 0.8 µM (active) | > 50 µM (inactive) | > 50 µM (inactive) | > 50 µM (inactive) | > 50 µM (inactive) | > 50 µM (inactive) | 43.9 µM (inactive) | > 50 µM (inactive) | > 50 µM (inactive) | > 50 µM (inactive) | > 50 µM (inactive) | > 50 µM (inactive) | > 50 µM (inactive) | > 50 µM (inactive) | > 50 µM (inactive) | > 50 µM (inactive) | > 50 µM (inactive) | > 50 µM (inactive) | 41.3 µM (inactive) |
| CCOC(=O)COc1ccc(/C=C/C(=O)c2ccc(OC)cc2)cc1 | 20.9 µM (inactive) | 22.9 µM (inactive) | 22.5 µM (inactive) | 39.7 µM (inactive) | 20.8 µM (inactive) | 28.5 µM (inactive) | 40.6 µM (inactive) | 39.3 µM (inactive) | 25.9 µM (inactive) | 19 µM (inactive) | – | 23.7 µM (inactive) | – | 19.3 µM (inactive) | 37.6 µM (inactive) | 16.3 µM (inactive) | 25.8 µM (inactive) | 65.3 µM (inactive) | 18.1 µM (inactive) | – |
| c1ccc(C2=Nc3cccc4cccc(c34)N2)cc1 | 3.82 µM (inactive) | 22.8 µM (inactive) | 37.9 µM (inactive) | 4.63 µM (inactive) | > 100 µM (inactive) | > 44.2 µM (inactive) | 32 µM (inactive) | 22.6 µM (inactive) | 58.1 µM (inactive) | > 78.7 µM (inactive) | > 100 µM (inactive) | 43.9 µM (inactive) | 57 µM (inactive) | 21.3 µM (inactive) | 19.7 µM (inactive) | 23.5 µM (inactive) | > 60.5 µM (inactive) | > 90.6 µM (inactive) | 22 µM (inactive) | > 78.3 µM (inactive) |
